Reference: patent US20260001879A1, “COMPOUNDS AS MYT1 INHIBITORS” (WIGEN BIOMMEDICINE TECHNOLOGY (SHANGHAI) CO., LTD., priority 2022, published 2026)

biological target: recombinant protein MYT1 (Homo sapiens (Human), UniProt Q99640); experiment: In vitro assay for inhibiting MYT1 kinase activity (ADP-GLO); type: biochemical; conditions: 10 μM ATP, read-out: Inhibitory activity against recombinant protein MYT1 IC50
Protocol: Recombinant MYT1 protein and the compounds were pre-incubated at room temperature for 15 min, and 10 μM ATP was then added to start the reaction. The mixture was incubated at room temperature for another 60 min, and the ADP-GLO reagent from Promega was then added. The resulting mixture was incubated in the dark for 40 min, a detection solution was then added, and the mixture was incubated for another 45-60 min. The chemiluminescence was determined using ENVISION. The inhibition rate and IC50 were calculated compared to the DMSO group.

recombinant protein MYT1, sequence (Q99640 whole entry): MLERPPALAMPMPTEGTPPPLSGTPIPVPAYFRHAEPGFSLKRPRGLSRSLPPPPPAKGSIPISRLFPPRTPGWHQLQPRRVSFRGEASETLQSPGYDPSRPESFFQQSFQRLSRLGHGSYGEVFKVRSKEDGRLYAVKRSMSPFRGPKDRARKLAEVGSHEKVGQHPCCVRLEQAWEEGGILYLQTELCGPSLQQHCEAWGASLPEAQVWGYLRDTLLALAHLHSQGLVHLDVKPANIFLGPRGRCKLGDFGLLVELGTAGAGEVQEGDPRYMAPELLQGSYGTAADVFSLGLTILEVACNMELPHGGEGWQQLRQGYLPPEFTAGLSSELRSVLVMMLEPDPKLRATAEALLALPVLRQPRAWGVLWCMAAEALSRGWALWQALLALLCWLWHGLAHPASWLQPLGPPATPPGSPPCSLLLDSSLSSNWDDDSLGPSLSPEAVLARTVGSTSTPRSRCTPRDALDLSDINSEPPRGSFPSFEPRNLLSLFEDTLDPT

Row | SMILES | IC50
1 | Cc1ccc(O)c(C)c1-n1c(N)c(C(N)=O)c2cc3c(nc21)NCC3 [Compound 80] | ≤ 200 nM
2 | Cc1ccc(O)c(C)c1-n1c(N)c(C(N)=O)c2cc3scnc3nc21 [Compound 70] | ≤ 200 nM
3 | Cc1ccc(O)c(C)c1-n1c(N)c(C(N)=O)c2cc3ncn(C)c3nc21 [Compound 65] | ≤ 200 nM
4 | Cc1cc2c(C(N)=O)c(N)n(-c3c(C)c(O)cc(Br)c3C)c2nc1C [Compound 196] | ≤ 200 nM
5 | Cc1cc2c(C(N)=O)c(N)n(-c3c(C)c(C)cc(O)c3C)c2nc1C [Compound 205] | ≤ 200 nM
6 | Cc1cc2c(cc1C#N)c(C(N)=O)c(N)n2-c1c(C)c(O)cc(F)c1C [Compound 160] | ≤ 200 nM
7 | Cc1ccc(O)c(C)c1-n1c(N)c(C(N)=O)c2cc3c(nc21)OCCC3 [Compound 35] | ≤ 200 nM
8 | Cc1ccc(O)c(C)c1-n1c(N)c(C(N)=O)c2cc3ccncc3nc21 [Compound 44] | ≤ 200 nM
9 | Cc1ccc(O)c(C)c1-n1c(N)c(C(N)=O)c2cc3c(nc21)CCOC3 [Compound 29] | ≤ 200 nM
10 | Cc1cc2c(C(N)=O)c(N)n(-c3c(C)c(O)cc(F)c3C)c2nc1C#N [Compound 143] | ≤ 200 nM
11 | COc1cc(O)c(C)c(-n2c(N)c(C(N)=O)c3cc(C)c(C)nc32)c1C [Compound 223] | ≤ 200 nM
12 | Cc1c(O)cc(F)c(C)c1-n1c(N)c(C(N)=O)c2cc3c(nc21)CCCC3 [Compound 202] | ≤ 200 nM
13 | Cc1ccc(O)c(C)c1-n1c(N)c(C(N)=O)c2cc3nccnc3cc21 [Compound 60] | ≤ 200 nM
14 | Cc1ccc(O)c(C)c1-n1c(N)c(C(N)=O)c2cc3c(nc21)C=CCC3 [Compound 114] | ≤ 200 nM
15 | Cc1ccc(O)c(C)c1-n1c(N)c(C(N)=O)c2cc3c(nc21)CN(C)CC3 [Compound 99] | ≤ 200 nM
16 | Cc1cc2c(C(N)=O)c(N)n(-c3c(C)c(O)cc(C#N)c3C)c2nc1C [Compound 220] | ≤ 200 nM
17 | Cc1nc2c(cc1C#N)c(C(N)=O)c(N)n2-c1c(C(F)(F)F)ccc(O)c1C [Compound 184] | ≤ 200 nM
18 | Cc1ccc(O)c(C)c1-n1c(N)c(C(N)=O)c2cc3c(nc21)CNC3 [Compound 84] | ≤ 200 nM
19 | Cc1cc2c(C(N)=O)c(N)n(-c3c(C(F)(F)F)ccc(O)c3C)c2nc1C#N [Compound 186] | ≤ 200 nM
20 | Cc1cc2c(C(N)=O)c(N)n(-c3c(C)c(O)cc4c3COC4)c2nc1C [Compound 124] | ≤ 200 nM
21 | Cc1ccc(O)c(C)c1-n1c(N)c(C(N)=O)c2cc(C#N)c(C)nc21 [Compound 9] | ≤ 200 nM

Row | SMILES | IC50
22 | Cc1ccc(O)c(C)c1-n1c(N)c(C(N)=O)c2cc3c(ccn3C)nc21 [Compound 72] | ≤ 200 nM
23 | Cc1ccc(O)c(C)c1-n1c(N)c(C(N)=O)c2cc3c(nc21)NCCC3 [Compound 103] | ≤ 200 nM
24 | Cc1ccc(O)c(C)c1-n1c(N)c(C(N)=O)c2cc3ncoc3nc21 [Compound 67] | ≤ 200 nM
25 | Cc1cc2c(C(N)=O)c(N)n(-c3c(C)c(O)cc(C(F)(F)F)c3C)c2nc1C [Compound 208] | ≤ 200 nM
26 | Cc1cc2c(C(N)=O)c(N)n(-c3c(C)cc(F)c(O)c3C)c2nc1C#N [Compound 146] | ≤ 200 nM
27 | Cc1ccc(O)c(C)c1-n1c(N)c(C(N)=O)c2cc3c(nc21)CCC=C3 [Compound 112] | ≤ 200 nM
28 | Cc1ccc(O)c(C)c1-n1c(N)c(C(N)=O)c2cnc(C#N)cc21 [Compound 172] | ≤ 200 nM
29 | Cc1ccc(O)c(C)c1-n1c(N)c(C(N)=O)c2cc3c(nc21)C=CC3 [Compound 109] | ≤ 200 nM
30 | Cc1cc2c(C(N)=O)c(N)n(-c3c(C)c(O)cc4ccoc34)c2nc1C [Compound 130] | ≤ 200 nM
31 | Cc1ccc(O)c(C)c1-n1c(N)c(C(N)=O)c2cc3ccsc3nc21 [Compound 74] | ≤ 200 nM
32 | Cc1ccc(O)c(C)c1-n1c(N)c(C(N)=O)c2cc3c(nc21)CCN3 [Compound 77] | ≤ 200 nM
33 | Cc1ccc(O)c(C)c1-n1c(N)c(C(N)=O)c2cc3c(ncn3C)nc21 [Compound 66] | ≤ 200 nM
34 | Cc1ccc(O)c(C(F)(F)F)c1-n1c(N)c(C(N)=O)c2cc(C#N)c(C)nc21 [Compound 181] | ≤ 200 nM
35 | Cc1c(O)cc(F)c(C)c1-n1c(N)c(C(N)=O)c2cc3c(nc21)CC=C3 [Compound 211] | ≤ 200 nM
36 | Cc1cc2c(C(N)=O)c(N)n(-c3c(C)c(F)cc(O)c3Cl)c2nc1C [Compound 25] | ≤ 200 nM
37 | Cc1ccc(O)c(C)c1-n1c(N)c(C(N)=O)c2cc3c(nc21)CCO3 [Compound 18] | ≤ 200 nM
38 | Cc1ccc(O)c(C)c1-n1c(N)c(C(N)=O)c2cc3nc[nH]c3nc21 [Compound 64] | ≤ 200 nM
39 | Cc1cc2c(C(N)=O)c(N)n(-c3c(C)ccc(O)c3C(F)(F)F)c2nc1C#N [Compound 187] | ≤ 200 nM
40 | Cc1cc2c(cc1C#N)c(C(N)=O)c(N)n2-c1c(C)ccc(O)c1C [Compound 154] | ≤ 200 nM
41 | Cc1ccc(O)c(C)c1-n1c(N)c(C(N)=O)c2cc3c(nc21)CCN(C)C3 [Compound 96] | ≤ 200 nM
42 | Cc1c(O)cc(F)c(C)c1-n1c(N)c(C(N)=O)c2cc3ccccc3nc21 [Compound 179] | ≤ 200 nM

Row | SMILES | IC50
43 | Cc1cc2c(C(N)=O)c(N)n(-c3c(C)ccc(O)c3C)c2cc1C#N [Compound 157] | ≤ 200 nM
44 | Cc1ccc(O)c(C)c1-n1c(N)c(C(N)=O)c2cc3cnncc3nc21 [Compound 56] | ≤ 200 nM
45 | Cc1nc2c(cc1C#N)c(C(N)=O)c(N)n2-c1c(C)c(O)cc(F)c1C [Compound 137] | ≤ 200 nM
46 | Cc1cc(F)c(O)c(C)c1-n1c(N)c(C(N)=O)c2cc3ccccc3nc21 [Compound 180] | ≤ 200 nM
47 | Cc1ccc(O)c(C)c1-n1c(N)c(C(N)=O)c2cc3c(nc21)CC=C3 [Compound 106] | ≤ 200 nM
48 | Cc1ccc(O)c(C)c1-n1c(N)c(C(N)=O)c2cc3cnccc3nc21 [Compound 47] | ≤ 200 nM
49 | Cc1cc2c(C(N)=O)c(N)n(-c3c(C)c(O)cc4c3OCC4)c2nc1C [Compound 118] | ≤ 200 nM
50 | Cc1ccc(O)c(C)c1-n1c(N)c(C(N)=O)c2cc3ncccc3nc21 [Compound 50] | ≤ 200 nM
51 | Cc1cc2c(C(N)=O)c(N)n(-c3c(C)cnc(O)c3C)c2nc1C [Compound 177] | ≤ 200 nM
52 | Cc1ccc(O)c(C)c1-n1c(N)c(C(N)=O)c2cc3sccc3nc21 [Compound 75] | ≤ 200 nM
53 | Cc1cc(F)c(O)c(C)c1-n1c(N)c(C(N)=O)c2cc3c(nc21)COC3 [Compound 134] | ≤ 200 nM
54 | Cc1cc2c(C(N)=O)c(N)n(-c3c(C)cc(F)c(O)c3C)c2nc1C (single isomer, unassigned) [Compound 5] | ≤ 200 nM
55 | Cc1ccc(O)c(C)c1-n1c(N)c(C(N)=O)c2cc3c(nc21)CCCO3 [Compound 26] | ≤ 200 nM
56 | Cc1ccc(O)c(C)c1-n1c(N)c(C(N)=O)c2cc3c(nc21)N(C)CCC3 [Compound 105] | ≤ 200 nM
57 | Cc1cc(F)c(O)c(C)c1-n1c(N)c(C(N)=O)c2cc(C#N)c(C)nc21 [Compound 140] | ≤ 200 nM
58 | Cc1ccc(O)c(C)c1-n1c(N)c(C(N)=O)c2cc3c(nc21)N(C)CC3 [Compound 90] | ≤ 200 nM
59 | Cc1ccc(O)c(C)c1-n1c(N)c(C(N)=O)c2cc3cscc3nc21 [Compound 76] | ≤ 200 nM
60 | Cc1cc2c(C(N)=O)c(N)n(-c3c(Cl)cc(F)c(O)c3C)c2nc1C [Compound 4] | ≤ 200 nM
61 | Cc1cc2c(C(N)=O)c(N)n(-c3c(C)cc(F)c(O)c3Cl)c2nc1C [Compound 8] | ≤ 200 nM
62 | Cc1ccc(O)c(C)c1-n1c(N)c(C(N)=O)c2cc3cocc3nc21 [Compound 63] | ≤ 200 nM
63 | Cc1ccc(O)c(C)c1-n1c(N)c(C(N)=O)c2cc3ccoc3nc21 [Compound 61] | ≤ 200 nM

Row | SMILES | IC50
64 | Cc1ccc(O)c(C)c1-n1c(N)c(C(N)=O)c2cc3c(nc21)CCN3C [Compound 87] | ≤ 200 nM
65 | Cc1cc2c(C(N)=O)c(N)n(-c3c(C)c(O)cc4c3CCO4)c2nc1C [Compound 121] | ≤ 200 nM
66 | Cc1c(O)cc(F)c(C)c1-n1c(N)c(C(N)=O)c2cc3c(nc21)CCC3 [Compound 199] | ≤ 200 nM
67 | Cc1ccc(O)c(C)c1-n1c(N)c(C(N)=O)c2cc3occc3nc21 [Compound 62] | ≤ 200 nM
68 | Cc1cc2c(C(N)=O)c(N)n(-c3c(C)c(O)cc(Cl)c3C)c2nc1C [Compound 193] | ≤ 200 nM
69 | Cc1ccc(O)c(C)c1-n1c(N)c(C(N)=O)c2cc3c(nc21)OCC3 [Compound 20] | ≤ 200 nM
70 | Cc1ccc(O)c(C)c1-n1c(N)c(C(N)=O)c2cc3nccnc3nc21 [Compound 53] | ≤ 200 nM
71 | Cc1ccc(O)c(C)c1-n1c(N)c(C(N)=O)c2cc3c(nc21)CN(C)C3 [Compound 93] | ≤ 200 nM
72 | Cc1cc2c(cc1C#N)c(C(N)=O)c(N)n2-c1c(C)cc(F)c(O)c1C [Compound 163] | ≤ 200 nM
73 | Cc1ccc(O)c(C)c1-n1c(N)c(C(N)=O)c2cc3c(nc21)CCCN3 [Compound 102] | ≤ 200 nM
74 | Cc1cc2c(C(N)=O)c(N)n(-c3c(C)c(O)cc(F)c3C)c2cc1C#N [Compound 166] | ≤ 200 nM
75 | Cc1cc2c(C(N)=O)c(N)n(-c3c(C)cc4c(c3C)OCC4)c2nc1C [Compound 152] | ≤ 200 nM
76 | Cc1ccc(O)c(C)c1-n1c(N)c(C(N)=O)c2cc3c(nc21)CCCN3C [Compound 104] | ≤ 200 nM
77 | Cc1cc2c(C(N)=O)c(N)n(-c3c(C)c(O)cc4occc34)c2nc1C [Compound 129] | ≤ 200 nM
78 | Cc1ccc(O)c(C)c1-n1c(N)c(C(N)=O)c2cc3c(nc21)CC=CC3 [Compound 113] | ≤ 200 nM
79 | Cc1cc2c(C(N)=O)c(N)n(-c3c(C)ccc(O)c3C)c2c(C#N)c1C [Compound 173] | ≤ 200 nM
80 | Cc1cc2c(C(N)=O)c(N)n(-c3c(C)ccc(=O)n3C)c2nc1C [Compound 178] | ≤ 200 nM
81 | Cc1ccc(O)c(C)c1-n1c(N)c(C(N)=O)c2cc3c(nc21)COC3 [Compound 15] | ≤ 200 nM
82 | Cc1ccc(O)c(C)c1-n1c(N)c(C(N)=O)c2cc3c(nc21)OCO3 [Compound 38] | ≤ 200 nM
83 | Cc1ccc(O)c(C)c1-n1c(N)c(C(N)=O)c2cc3ccn(C)c3nc21 [Compound 71] | ≤ 200 nM
